Measured values: patent US12098144B2, “Piperazine indazole glucocorticoid receptor antagonists” (Corcept Therapeutics Incorporated, priority 2021, dated 2024)

What follows are compounds tested against T1, glucocorticoid receptor (Homo sapiens, UniProt P04150) (assay: Hep G2 TAT Ki: inhibition of dexamethasone-induced TAT in HepG2 cells (96 well)). Details: challenge of 100 nM dexamethasone, IC50 converted to Ki by Cheng and Prusoff equation.
T1 construct: endogenous in cells; ATCC cat
T1 sequence (P04150 1-777): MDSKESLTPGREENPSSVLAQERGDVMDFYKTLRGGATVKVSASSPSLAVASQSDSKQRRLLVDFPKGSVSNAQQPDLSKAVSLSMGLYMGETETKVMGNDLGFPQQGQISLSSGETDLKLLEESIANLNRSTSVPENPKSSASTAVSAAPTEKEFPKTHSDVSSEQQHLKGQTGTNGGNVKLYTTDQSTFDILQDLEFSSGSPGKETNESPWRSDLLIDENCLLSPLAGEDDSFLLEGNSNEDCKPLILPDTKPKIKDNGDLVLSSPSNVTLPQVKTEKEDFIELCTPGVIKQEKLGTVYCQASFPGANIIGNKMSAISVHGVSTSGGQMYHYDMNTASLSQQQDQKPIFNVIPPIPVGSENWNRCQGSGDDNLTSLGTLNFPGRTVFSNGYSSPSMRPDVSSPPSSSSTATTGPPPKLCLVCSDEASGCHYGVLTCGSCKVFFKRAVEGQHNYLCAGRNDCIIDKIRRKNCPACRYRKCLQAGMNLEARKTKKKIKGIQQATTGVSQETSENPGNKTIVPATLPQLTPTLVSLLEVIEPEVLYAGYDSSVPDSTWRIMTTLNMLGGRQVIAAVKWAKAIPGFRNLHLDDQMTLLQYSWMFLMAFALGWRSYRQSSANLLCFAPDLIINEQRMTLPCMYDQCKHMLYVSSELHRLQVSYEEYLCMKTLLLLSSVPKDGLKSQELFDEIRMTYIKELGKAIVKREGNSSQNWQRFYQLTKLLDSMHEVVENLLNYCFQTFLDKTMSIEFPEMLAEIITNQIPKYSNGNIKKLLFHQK
Format: cell-based
Procedure: Glucocorticoid mediated activation of TAT occurs by transactivation of glucocorticoid response elements in the TAT promoter by glucocorticoid receptor-agonist complex.
HepG2 cells were cultured using MEME media supplemented with 10% (v/v) foetal bovine serum; 2 mM L-glutamine and 1% (v/v) NEAA at 37° C., 5%/95% (v/v) CO2/air.
Compounds were serially half log diluted in 100% (v/v) dimethylsulphoxide from a 10 mM stock.
HepG2 cells were then lysed with 30 μl of cell lysis buffer containing a protease inhibitor cocktail for 15 minutes at 4° C. […] After 2 hours incubation at 37° C. the reaction was terminated by the addition of 15 μl of 10M aqueous potassium hydroxide solution, and the plates incubated for a further 30 minutes at 37° C.
[compound] and fitting the data to a 4 parameter logistic equation.
For `CC(C)=CCN1CCN(S(=O)(=O)c2cnn(C)n2)CC1c1cc2cnn(-c3ccc(F)cc3)c2cc1C` (centres unmarked) [Example 17, 1-(4-fluorophenyl)-6-methyl-5-(4-((2-methyl-2H-1,2,3-triazol-4-yl)sulfonyl)-1-(3-methylbut-2-en-1-yl)piperazin-2-yl)-1H-indazole], the Ki was 110 nM.
`Cc1cc2c(cnn2-c2ccc(F)cc2)cc1C1CN(S(=O)(=O)CC2CC2)CCN1CC(C)C` (single isomer, unassigned) [Example 46, 5-(4-((cyclopropylmethyl)sulfonyl)-1-isobutylpiperazin-2-yl)-1-(4-fluorophenyl)-6-methyl-1H-indazole] showed a Ki of 310 nM.
With `Cc1cc2c(cnn2-c2ccc(F)cc2)cc1C1CN(S(=O)(=O)N(C)C)CCN1CC(C)C` (single isomer, unassigned) [Example 50, 3-(1-(4-fluorophenyl)-6-methyl-1H-indazol-5-yl)-4-isobutyl-N,N-dimethylpiperazine-1-sulfonamide] the Ki was 64 nM.
`Cc1cc2c(cnn2-c2ccc(F)cc2)cc1C1CN(S(C)(=O)=O)CCN1CC1CCOCC1` (single isomer, unassigned) [Example 30, 1-(4-fluorophenyl)-6-methyl-5-(4-(methylsulfonyl)-1-((tetrahydro-2H-pyran-4-yl)methyl)piperazin-2-yl)-1H-indazole] showed a Ki of 90 nM.
With `COCCn1cc(S(=O)(=O)N2CCN(CCC(F)(F)F)C(c3cc4cnn(-c5ccc(F)cc5)c4cc3C)C2)cn1` (single isomer, unassigned) [Example 136, 1-(4-fluorophenyl)-5-(4-((1-(2-methoxyethyl)-1H-pyrazol-4-yl)sulfonyl)-1-(3,3,3-trifluoropropyl)piperazin-2-yl)-6-methyl-1H-indazole] the Ki was 57 nM.
`Cc1cc2c(cnn2-c2ccc(F)cc2)cc1C1CN(S(=O)(=O)c2ccn(C)n2)CCN1CC(C)C` (single isomer, unassigned) [Example 20, 1-(4-fluorophenyl)-5-(1-isobutyl-4-((1-methyl-1H-pyrazol-3-yl)sulfonyl)piperazin-2-yl)-6-methyl-1H-indazole] gave a Ki of 130 nM.
Compound `Cc1cc2c(cnn2-c2ccc(F)cc2)cc1C1CN(S(=O)(=O)c2cnn(C)n2)CCN1C1CCCC1` (single isomer, unassigned) [Example 27, 5-(1-cyclopentyl-4-((2-methyl-2H-1,2,3-triazol-4-yl)sulfonyl)piperazin-2-yl)-1-(4-fluorophenyl)-6-methyl-1H-indazole] has a Ki of 47 nM.
`Cc1cc2c(cnn2-c2ccc(F)cc2)cc1C1CN(S(=O)(=O)N2CCOCC2)CCN1CC(C)C` (single isomer, unassigned) [Example 53, 4-((3-(1-(4-fluorophenyl)-6-methyl-1H-indazol-5-yl)-4-isobutylpiperazin-1-yl)sulfonyl)morpholine] showed a Ki of 41 nM.
For `Cc1cc2c(cnn2-c2ccc(F)cc2)cc1C1CN(S(=O)(=O)c2cnn(C)n2)CCN1Cc1ccn(C)n1` (single isomer, unassigned) [Example 80, 1-(4-fluorophenyl)-6-methyl-5-(1-((1-methyl-1H-pyrazol-3-yl)methyl)-4-((2-methyl-2H-1,2,3-triazol-4-yl)sulfonyl)piperazin-2-yl)-1H-indazole], the Ki was 150 nM.
Work on `Cc1cc2c(cnn2-c2ccc(=O)n(C)c2)cc1C1CN(S(=O)(=O)c2cnn(C)n2)CCN1CCC(F)(F)F` (centres unmarked) [Example 165, 1-methyl-5-(6-methyl-5-(4-((2-methyl-2H-1,2,3-triazol-4-yl)sulfonyl)-1-(3,3,3-trifluoropropyl)piperazin-2-yl)-1H-indazol-1-yl)pyridin-2(1H)-one] yielded a Ki of 81 nM.
With `Cc1cc2c(cnn2-c2ccc(F)cc2)cc1C1CN(S(=O)(=O)c2cnn(C)n2)CCN1c1ccccc1` (centres unmarked) [Example 86, 1-(4-fluorophenyl)-6-methyl-5-(4-((2-methyl-2H-1,2,3-triazol-4-yl)sulfonyl)-1-phenylpiperazin-2-yl)-1H-indazole] the Ki was 180 nM.
For `Cc1cc2c(cnn2-c2ccc(F)cc2)cc1C1C(C)N(S(=O)(=O)c2cnn(C)n2)CCN1CC(C)C` (centres unmarked) [Example 88, 1-(4-fluorophenyl)-5-(1-isobutyl-3-methyl-4-((2-methyl-2H-1,2,3-triazol-4-yl)sulfonyl)piperazin-2-yl)-6-methyl-1H-indazole], the Ki was 35 nM.
`Cc1cc2c(cnn2-c2ccc(F)cc2)cc1C1CN(S(=O)(=O)c2cn(C)nn2)CCN1CC(C)C` (single isomer, unassigned) [Example 101, 1-(4-fluorophenyl)-5-(1-isobutyl-4-((1-methyl-1H-1,2,3-triazol-4-yl)sulfonyl)piperazin-2-yl)-6-methyl-1H-indazole] showed a Ki of 28 nM.
For `Cc1cc2c(cnn2-c2ccc(F)cc2)cc1C1CN(S(=O)(=O)c2cnn(C)n2)CCN1CCCC(F)(F)F` (centres unmarked) [Example 68, 1-(4-fluorophenyl)-6-methyl-5-(4-((2-methyl-2H-1,2,3-triazol-4-yl)sulfonyl)-1-(4,4,4-trifluorobutyl)piperazin-2-yl)-1H-indazole], the Ki was 58 nM.
`Cc1cc2c(cnn2-c2ccc(F)cc2)cc1C1CN(S(=O)(=O)c2cnn(C)n2)CCN1C(=O)C(C)C` (centres unmarked) [Example 35, 1-(2-(1-(4-fluorophenyl)-6-methyl-1H-indazol-5-yl)-4-((2-methyl-2H-1,2,3-triazol-4-yl)sulfonyl)piperazin-1-yl)-2-methylpropan-1-one] gave a Ki of 770 nM.
For `CO[C@H]1C[C@@H](CN2CCN(S(=O)(=O)c3cnc(C)s3)C[C@@H]2c2cc3cnn(-c4ccc(F)cc4)c3cc2C)C1` (relative stereo) [Example 172, 5-((3-(1-(4-fluorophenyl)-6-methyl-1H-indazol-5-yl)-4-((3-methoxycyclobutyl)methyl)piperazin-1-yl)sulfonyl)-2-methylthiazole], the Ki was 36 nM.
`Cc1cc2c(cnn2-c2ccc(F)cc2)cc1C1CN(S(=O)(=O)c2cnn(C)c2C)CCN1CCC(F)(F)F` (single isomer, unassigned) [Example 129, 5-(4-((1,5-dimethyl-1H-pyrazol-4-yl)sulfonyl)-1-(3,3,3-trifluoropropyl)piperazin-2-yl)-1-(4-fluorophenyl)-6-methyl-1H-indazole] was tested, and the Ki was 13 nM.
With `CCn1cc(S(=O)(=O)N2CCN(CCC(F)(F)F)C(c3cc4cnn(-c5ccc(F)cc5)c4cc3C)C2)cn1` (single isomer, unassigned) [Example 131, 5-(4-((1-ethyl-1H-pyrazol-4-yl)sulfonyl)-1-(3,3,3-trifluoropropyl)piperazin-2-yl)-1-(4-fluorophenyl)-6-methyl-1H-indazole] the Ki was 13 nM.
Compound `Cc1nc(S(=O)(=O)N2CCN(CCC(F)(F)F)C(c3cc4cnn(-c5ccc(F)cc5)c4cc3C)C2)cs1` (single isomer, unassigned) [Example 134, 4-((3-(1-(4-fluorophenyl)-6-methyl-1H-indazol-5-yl)-4-(3,3,3-trifluoropropyl)piperazin-1-yl)sulfonyl)-2-methylthiazole] has a Ki of 6.5 nM.
`Cc1cc2c(cnn2-c2ccc(F)cc2)cc1C1CN(S(=O)(=O)CC2CC2)CCN1CC(C)C` (single isomer, unassigned) [Example 51, 5-(4-((cyclopropylmethyl)sulfonyl)-1-isobutylpiperazin-2-yl)-1-(4-fluorophenyl)-6-methyl-1H-indazole] showed a Ki of 28 nM.
In the case of `Cc1cc2c(cnn2-c2ccc(F)cc2)cc1C1CN(S(=O)(=O)c2cnn(C)n2)CCN1CC1(C(F)(F)F)CC1` (single isomer, unassigned) [Example 83, 1-(4-fluorophenyl)-6-methyl-5-(4-((2-methyl-2H-1,2,3-triazol-4-yl)sulfonyl)-1-((1-(trifluoromethyl)cyclopropyl)methyl)piperazin-2-yl)-1H-indazole], the Ki is reported as 33 nM.
With `Cc1cc2c(cnn2-c2ccc(F)cc2)cc1C1CN(S(=O)(=O)c2cnn(C)n2)CCN1CC1CC1(F)F` (single isomer, unassigned) [Example 160, 5-(1-((2,2-difluorocyclopropyl)methyl)-4-((2-methyl-2H-1,2,3-triazol-4-yl)sulfonyl)piperazin-2-yl)-1-(4-fluorophenyl)-6-methyl-1H-indazole] the Ki was 32 nM.
With `Cc1cc2c(cnn2-c2ccc(F)cc2)cc1C1CN(S(=O)(=O)c2cnn(C)n2)CCN1Cc1ccccc1` (single isomer, unassigned) [Example 6, 5-(1-benzyl-4-((2-methyl-2H-1,2,3-triazol-4-yl)sulfonyl)piperazin-2-yl)-1-(4-fluorophenyl)-6-methyl-1H-indazole] the Ki was 46 nM.
